# Assay: (§1) The drug is tested on Z-021 corresponding to metagenome with ENA study accession number: PRJEB37062 and ENA sample accession number: ERS12561820 for biotransformation under anaerobic condition. The drug concentrations were measured over 9 timepoints collected between 0 and 24 hours of incubation by liquid-chromatography-coupled mass spectrometry (LC–MS)
# Details: 2 µM
# Note: call rule not given here.
row,SMILES,Bacterial Biotransformation
1,COC1=C(OC)C(=O)C(CCCCCCCCCCO)=C(C)C1=O [IDEBENONE],Compound metabolized
2,Cc1cc2c(s1)Nc1ccccc1N=C2N1CCN(C)CC1 [OLANZAPINE],Compound NOT metabolized

# Assay: (§2) The drug is tested on Z-019 corresponding to rat gut metagenome with ENA study accession number: PRJEB37062 and ENA sample accession number: ERS12561818 for biotransformation under anaerobic condition. The drug concentrations were measured over 9 timepoints collected between 0 and 24 hours of incubation by liquid-chromatography-coupled mass spectrometry (LC–MS)
# Details: 2 µM
row,SMILES,Bacterial Biotransformation
1,COC1=C(OC)C(=O)C(CCCCCCCCCCO)=C(C)C1=O [IDEBENONE],Compound NOT metabolized
2,Cc1cc2c(s1)Nc1ccccc1N=C2N1CCN(C)CC1 [OLANZAPINE],Compound NOT metabolized

# Assay: as §2, with “on Z-018” for “on Z-019”, “to pig” for “to rat”, “number: ERS12561817” for “number: ERS12561818”
# Details: 2 µM
row,SMILES,Bacterial Biotransformation
1,COC1=C(OC)C(=O)C(CCCCCCCCCCO)=C(C)C1=O [IDEBENONE],Compound metabolized
2,Cc1cc2c(s1)Nc1ccccc1N=C2N1CCN(C)CC1 [OLANZAPINE],Compound NOT metabolized

# Assay: as §2, with “on Z-017” for “on Z-019”, “to mouse” for “to rat”, “number: ERS12561816” for “number: ERS12561818”
# Details: 2 µM
row,SMILES,Bacterial Biotransformation
1,COC1=C(OC)C(=O)C(CCCCCCCCCCO)=C(C)C1=O [IDEBENONE],Compound NOT metabolized
2,Cc1cc2c(s1)Nc1ccccc1N=C2N1CCN(C)CC1 [OLANZAPINE],Compound NOT metabolized

# Assay: as §2, with “Z-014” for “Z-019”, “ERS12561814” for “ERS12561818”
# Details: 2 µM
row,SMILES,Bacterial Biotransformation
1,COC1=C(OC)C(=O)C(CCCCCCCCCCO)=C(C)C1=O [IDEBENONE],Compound metabolized
2,Cc1cc2c(s1)Nc1ccccc1N=C2N1CCN(C)CC1 [OLANZAPINE],Compound NOT metabolized

# Assay: as §1, with “Z-010” for “Z-021”, “ERS12561810” for “ERS12561820”
# Details: 2 µM
row,SMILES,Bacterial Biotransformation
1,COC1=C(OC)C(=O)C(CCCCCCCCCCO)=C(C)C1=O [IDEBENONE],Compound metabolized
2,Cc1cc2c(s1)Nc1ccccc1N=C2N1CCN(C)CC1 [OLANZAPINE],Compound NOT metabolized

# Assay: as §1, with “Z-005” for “Z-021”, “ERS12561805” for “ERS12561820”
# Details: 2 µM
row,SMILES,Bacterial Biotransformation
1,COC1=C(OC)C(=O)C(CCCCCCCCCCO)=C(C)C1=O [IDEBENONE],Compound metabolized
2,Cc1cc2c(s1)Nc1ccccc1N=C2N1CCN(C)CC1 [OLANZAPINE],Compound NOT metabolized

# Assay: as §2, with “on Z-001” for “on Z-019”, “to mouse” for “to rat”, “number: ERS12561801” for “number: ERS12561818”
# Details: 2 µM
row,SMILES,Bacterial Biotransformation
1,COC1=C(OC)C(=O)C(CCCCCCCCCCO)=C(C)C1=O [IDEBENONE],Compound NOT metabolized
2,Cc1cc2c(s1)Nc1ccccc1N=C2N1CCN(C)CC1 [OLANZAPINE],Compound metabolized

# Assay: as §2, with “on WLS-170” for “on Z-019”, “to human” for “to rat”, “number: ERS12561762” for “number: ERS12561818”
# Details: 2 µM
row,Bacterial Biotransformation,SMILES
1,Compound NOT metabolized,COC1=C(OC)C(=O)C(CCCCCCCCCCO)=C(C)C1=O [IDEBENONE]

# Assay: as §2, with “on WLS-082” for “on Z-019”, “to human” for “to rat”, “number: ERS12561751” for “number: ERS12561818”
# Details: 2 µM
row,SMILES,Bacterial Biotransformation
1,COC1=C(OC)C(=O)C(CCCCCCCCCCO)=C(C)C1=O [IDEBENONE],Compound metabolized
2,Cc1cc2c(s1)Nc1ccccc1N=C2N1CCN(C)CC1 [OLANZAPINE],Compound NOT metabolized

# Assay: as §2, with “on WLS-039” for “on Z-019”, “to human” for “to rat”, “number: ERS12561746” for “number: ERS12561818”
# Details: 2 µM
row,SMILES,Bacterial Biotransformation
1,COC1=C(OC)C(=O)C(CCCCCCCCCCO)=C(C)C1=O [IDEBENONE],Compound metabolized
2,Cc1cc2c(s1)Nc1ccccc1N=C2N1CCN(C)CC1 [OLANZAPINE],Compound NOT metabolized

# Assay: as §2, with “on WLS-027” for “on Z-019”, “to human” for “to rat”, “number: ERS12561744” for “number: ERS12561818”
# Details: 2 µM
row,SMILES,Bacterial Biotransformation
1,COC1=C(OC)C(=O)C(CCCCCCCCCCO)=C(C)C1=O [IDEBENONE],Compound metabolized
2,Cc1cc2c(s1)Nc1ccccc1N=C2N1CCN(C)CC1 [OLANZAPINE],Compound NOT metabolized

# Details: human gut metagenome, 24 h, 2 µM
row,SMILES,Bacterial Biotransformation
1,COC1=C(OC)C(=O)C(CCCCCCCCCCO)=C(C)C1=O [IDEBENONE],Compound metabolized
2,Cc1cc2c(s1)Nc1ccccc1N=C2N1CCN(C)CC1 [OLANZAPINE],Compound NOT metabolized

# Details: human gut metagenome, 24 h, 2 µM
# Remark: another data set of the same source
row,SMILES,Bacterial Biotransformation
1,COC1=C(OC)C(=O)C(CCCCCCCCCCO)=C(C)C1=O [IDEBENONE],Compound metabolized
2,Cc1cc2c(s1)Nc1ccccc1N=C2N1CCN(C)CC1 [OLANZAPINE],Compound NOT metabolized

# Details: human gut metagenome, 24 h, 2 µM
# Remark: another data set of the same source
row,SMILES,Bacterial Biotransformation
1,Cc1cc2c(s1)Nc1ccccc1N=C2N1CCN(C)CC1 [OLANZAPINE],Compound metabolized

# Details: human gut metagenome, 24 h, 2 µM
# Remark: another data set of the same source
row,SMILES,Bacterial Biotransformation
1,COC1=C(OC)C(=O)C(CCCCCCCCCCO)=C(C)C1=O [IDEBENONE],Compound metabolized
2,Cc1cc2c(s1)Nc1ccccc1N=C2N1CCN(C)CC1 [OLANZAPINE],Compound NOT metabolized

# Details: human gut metagenome, 24 h, 2 µM
# Remark: another data set of the same source
row,SMILES,Bacterial Biotransformation
1,Cc1cc2c(s1)Nc1ccccc1N=C2N1CCN(C)CC1 [OLANZAPINE],Compound metabolized

# Details: human gut metagenome, 24 h, 2 µM
# Remark: another data set of the same source
row,SMILES,Bacterial Biotransformation
1,Cc1cc2c(s1)Nc1ccccc1N=C2N1CCN(C)CC1 [OLANZAPINE],Compound NOT metabolized

# Reference: ChEMBL document CHEMBL5724914, “Linking interpersonal differences in gut microbiota composition and drug biotransformation activity” (2024)
